Among the data in ChEMBL document CHEMBL3774358 (Eur J Med Chem, 2016) are IC50 values, retold here.

A short description of assay [1]: Inhibition of GFP-tagged Xenopus laevis kinesin-5 microtubule gliding velocity by fluorescence assay.
For assay [2], the target named is Actin nucleation-promoting factor WASL (Rattus norvegicus, UniProt O08816). The assay can be described thus: Inhibition of full-length rat N-WASP-induced Arp2/3 activation by fluorescence assay.
Sequence of Actin nucleation-promoting factor WASL (O08816 whole entry): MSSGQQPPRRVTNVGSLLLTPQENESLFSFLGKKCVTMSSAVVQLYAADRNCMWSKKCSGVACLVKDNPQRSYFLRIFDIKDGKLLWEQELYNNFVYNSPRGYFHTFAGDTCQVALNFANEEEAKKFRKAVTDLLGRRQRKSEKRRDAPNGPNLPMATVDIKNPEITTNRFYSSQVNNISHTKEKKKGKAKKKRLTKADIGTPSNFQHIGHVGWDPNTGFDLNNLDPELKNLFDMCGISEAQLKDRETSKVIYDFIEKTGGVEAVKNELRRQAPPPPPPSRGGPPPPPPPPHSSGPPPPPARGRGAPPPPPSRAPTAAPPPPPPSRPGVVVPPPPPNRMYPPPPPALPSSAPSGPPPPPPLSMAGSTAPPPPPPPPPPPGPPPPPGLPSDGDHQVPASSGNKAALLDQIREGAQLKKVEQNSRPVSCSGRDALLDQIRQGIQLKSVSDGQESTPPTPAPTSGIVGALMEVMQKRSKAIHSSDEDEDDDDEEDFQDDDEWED

As usually defined, the IC50 is the concentration at which inhibition is half-maximal. Higher therefore signals lower potency. Consider `CCOC(=O)C1=C(C)NC(=S)NC1c1cccc(O)c1` (stereo not drawn) [MONASTROL], for which the half-inhibitory concentration (IC50) in assay [1] was determined as 14 µM.

Regarding `CN(C)C[C@H](O)Cn1c2ccc(Br)cc2c2cc(Br)ccc21` [WISKOSTATIN], the IC50 in assay [2] worked out at 4.35 µM.

As to `CN(C)C[C@@H](O)Cn1c2ccc(Br)cc2c2cc(Br)ccc21`, the IC50 in assay [2] was 3.44 µM.
